Data published in patent US20240391928A1, “COMPOSITIONS FOR THE TREATMENT OF FOOD AND CHEMICAL ADDICTION AND METHODS OF MAKING AND USING SAME” (Duke University, priority 2021, published 2024).

Assays:
Assay type in all cases: cell-based
[1] = tested on: human hGHSR1a-vasopressin receptor 2 tail chimera; experiment: β-arr2^GFP translocation, compound screening (U2OS); conditions: secondary assay of HTS hits; for Beta-arrestin translocation ECmax (%): normalized to L585; for EC50: read-out: Beta-arrestin translocation EC50
hGHSR1a^WT = hGHSR1a^WT (Homo sapiens, UniProt Q92847); experiment: Gαq-dependent intracellular Ca2+ mobilization (iCa2+, miAeq); set-up: HEK293/T (transient); HEK293S Gαq knockout (transient, NanoBiT Gαq); conditions: for EC50 / Calcium signaling ECmax (%): secondary assay of HTS hits; for EC50: read-out: Calcium signaling EC50; for Calcium signaling ECmax (%): normalized to L585; for inhibition of iCa2+ evoked by N8279, ghrelin or L585: 30 minute antagonist pretreatment
Chain of hGHSR1a^WT (Q92847 whole entry): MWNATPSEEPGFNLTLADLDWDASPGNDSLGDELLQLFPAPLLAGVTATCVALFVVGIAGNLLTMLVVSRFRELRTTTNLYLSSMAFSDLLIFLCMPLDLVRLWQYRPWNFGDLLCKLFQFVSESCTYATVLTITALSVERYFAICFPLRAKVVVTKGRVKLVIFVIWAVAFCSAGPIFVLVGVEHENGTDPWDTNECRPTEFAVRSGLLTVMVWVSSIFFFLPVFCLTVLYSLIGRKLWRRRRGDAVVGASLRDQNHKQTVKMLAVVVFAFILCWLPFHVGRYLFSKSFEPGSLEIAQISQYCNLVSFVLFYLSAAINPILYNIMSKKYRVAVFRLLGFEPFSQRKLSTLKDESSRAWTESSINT
Method: Gαq-Dependent Intracellular Ca^2+ Mobilization. […] Cells were split into and seeded into 10 cm dishes without antibiotic selection and grown to confluency overnight. The next morning, cells were serum starved in 10 mL of clear opti-MEM (supplemented with L-glutamine and HEPES; Gibco, Waltham, MA) for 3-4 hours in a 37° C. incubator with 5% CO2. Then, 25 μL of coelenterazine H (NanoLight Technology, Pinetop, AZ) was added to each 10 mL dish and incubated for another 1-2 hours. For antagonist assays, test compounds were either added directly to the media in 10 cm dishes, or cells were collected by gentle washing/trituration and plated onto white, clear-bottomed 96-well plates for 30 minutes—1 hour. Once the coelenterazine H (or antagonist) incubation was complete, cells were harvested from the 10 cm dish by gentle washing/trituration and collected in a 15 mL conical tube. Cell suspensions were then immediately subjected to assay by injecting cells onto a white, clear-bottomed 96-well plate containing 2× test compounds. Luminescence was read without delay and for 10 seconds per well. To control for cell number variability, cells were lysed in 2× lysis buffer (100 mM CaCl2+0.2% Triton-X) immediately following the assay. The max ligand-induced response (Ca^2+ mobilization: net-miAeq) over 10 seconds was normalized by dividing the ligand-induced luminescence counts (L-miAeq) by the ligand-induced luminescence counts (L-MiAeq) plus the luminescence measured upon cell lysis (Lysis-miAeq). Relative, lysis-normalized data were then normalized to the appropriate control/reference condition.
(§1) For experiments with WT and Gt KO HEK293/S cells, […] of hGHSR1a^WT, 10 μg of miAEQ, and 2.5 μg of pcDNA3.1 was transiently transfected into 10 cm dishes and incubated overnight. […] Twenty-four hours later, experiments proceeded in accordance with the procedures described above. To control for any possible kinetic differences in genetically modified cell lines or GHSR1a variants, the average ligand-induced response over 10 seconds was calculated, then normalized by dividing the L-miAeq by the L-miAeq plus the Lysis-miAeq and normalized to the appropriate control/reference condition.

[2] = target: T1, hGHSR1a^WT in Gαq/11 KO HEK293/S cells (Homo sapiens, UniProt Q92847); experiment: iCa2+ in Gαq/11 KO HEK293/S cells; conditions: 10 μM ligand
T1 construct: expressed in transfected cells; SRF-RE reporter); HEK293/S Gαq/11 KO and parental WT (iCa2+)
T1 sequence (Q92847 whole entry): as above
Method: as §1

Compound	Beta-arrestin translocation ECmax (%) [1]	EC50 [1]	EC50 (hGHSR1a^WT)	Calcium signaling ECmax (%) (hGHSR1a^WT)	inhibition of iCa2+ evoked by N8279, ghrelin or L585 (hGHSR1a^WT)	agonist-induced iCa2+ in Gαq/11 KO cells [2]	activity of re-synthesized molecule in words (hGHSR1a^WT; re-synthesized material)	potency and efficacy relative to L585 in words (hGHSR1a^WT; screening sample)
Cc1ccc2oc3c(c(=O)c2c1)C(c1cccc(O)c1)N(CCCN1CCOCC1)C3=O (stereo not drawn) [NCGC00101913]	153%	1.55 µM	~18000 µM	–	–	–	–	–
CCCOc1ccc(C2c3c(oc4ccccc4c3=O)C(=O)N2c2ccc(C)cn2)cc1OCC (stereo not drawn) [NCGC00101673]	49%	2.4 µM	32.4 µM	115%	–	–	–	–
Cc1ccc2oc3c(c(=O)c2c1)C(c1ccccc1F)N(CCCN1CCOCC1)C3=O (stereo not drawn) [NCGC00101911]	–	–	0.00226 µM	44%	–	–	–	–
CCOc1ccc(C2c3c(oc4ccccc4c3=O)C(=O)N2CCCN2CCOCC2)cc1OCC (stereo not drawn) [MLS000115604]	38%	0.00298 µM	0.00804 µM	51%	–	–	–	–
COc1cccc(C2c3c(oc4ccccc4c3=O)C(=O)N2CCCN2CCOCC2)c1 (stereo not drawn) [MLS000115599]	–	–	20.4 µM	71%	–	–	–	–
CC(C)CCOc1cccc(C2c3c(oc4ccccc4c3=O)C(=O)N2CCCN2CCOCC2)c1 (stereo not drawn) [MLS000115603]	–	~4690 µM	0.00681 µM	48%	–	–	–	–
COc1ccc(C2c3c(oc4ccc(F)cc4c3=O)C(=O)N2Cc2ccc3c(c2)OCO3)cc1 (stereo not drawn) [NCGC00101634]	10%	0.426 µM	7.71 µM	61%	–	–	–	–
Cc1ccc2oc3c(c(=O)c2c1)C(c1cccc(Cl)c1)N(CCCN1CCOCC1)C3=O (stereo not drawn) [MLS000103531]	204%	6.3 µM	0.00032 µM	8%	–	–	–	–
C[C@@H](O)CNC(C)(C)CC(=O)N[C@@H]1CCc2ccccc2N(Cc2ccc(-c3ccccc3-c3nn[nH]n3)cc2)C1=O [Example L626.585, reference compound]	100%	0.024 µM	0.0146 µM	100%	–	abolished	–	–
CSc1ccc(C2c3c(oc4ccccc4c3=O)C(=O)N2CCCN2CCOCC2)cc1 (stereo not drawn) [NCGC00101907]	39%	0.558 µM	3.35 µM	40%	–	–	–	–
CCCOc1ccc(C2c3c(oc4cc(C)c(C)cc4c3=O)C(=O)N2CCCN(C)C)cc1OCC (stereo not drawn) [MLS000115621]	0%	–	2.38 µM	126%	–	–	–	–
COc1cccc(C2c3c(oc4ccccc4c3=O)C(=O)N2CCCN2CCOCC2)c1 (stereo not drawn) [MLS002585710]	–	–	0.0176 µM	56%	–	–	–	–
CCCCOCCCn1c(N)c(C(=O)OC(C)COC)c2nc3ccccc3nc21 (stereo not drawn) [MLS000036469]	–	147 µM	0.00306 µM	50%	–	–	–	–
COc1cc(C2c3c(oc4cc(C)c(C)cc4c3=O)C(=O)N2CCCN2CCOCC2)ccc1O (stereo not drawn) [NCGC00101915]	368%	13.6 µM	~19200 µM	–	–	–	–	–
C=CCOc1ccc(C2c3c(oc4ccc(C)cc4c3=O)C(=O)N2CCCN2CCOCC2)cc1 (stereo not drawn) [NCGC00101909]	64%	0.254 µM	~3020 µM	–	–	–	–	–
CCCOc1ccc(C2c3c(oc4cc(C)c(C)cc4c3=O)C(=O)N2CCCN2CCOCC2)cc1 (stereo not drawn) [MLS000115606]	24%	0.0312 µM	–	–	–	–	–	–

Second part, the compound after the results:

Beta-arrestin translocation ECmax (%) [1]	EC50 [1]	EC50 (hGHSR1a^WT)	Calcium signaling ECmax (%) (hGHSR1a^WT)	inhibition of iCa2+ evoked by N8279, ghrelin or L585 (hGHSR1a^WT)	agonist-induced iCa2+ in Gαq/11 KO cells [2]	activity of re-synthesized molecule in words (hGHSR1a^WT; re-synthesized material)	potency and efficacy relative to L585 in words (hGHSR1a^WT; screening sample)	Compound
–	–	~11200 µM	–	–	–	–	–	Cc1ccc2oc3c(c(=O)c2c1)C(c1ccc(O)cc1)N(Cc1ccc2c(c1)OCO2)C3=O (stereo not drawn) [NCGC00101948]
163%	3.05 µM	5.62 µM	75%	–	–	–	–	CC(C)c1ccc(C2c3c(oc4ccc(Cl)cc4c3=O)C(=O)N2CCCN2CCOCC2)cc1 (stereo not drawn) [NCGC00119774]
49%	0.855 µM	2.78 µM	112%	–	–	–	–	Cc1ccc2oc3c(c(=O)c2c1)C(c1ccc(O)cc1)N(CCCN(C)C)C3=O (stereo not drawn) [NCGC00101937]
20%	0.0116 µM	4.9 µM	121%	–	–	–	–	Cc1ccc2oc3c(c(=O)c2c1)C(c1ccccc1F)N(CCCN(C)C)C3=O (stereo not drawn) [NCGC00101939]
20%	0.00424 µM	0.0043 µM	39%	–	–	–	–	CCCOc1cccc(C2c3c(oc4cc(C)c(C)cc4c3=O)C(=O)N2CCCN2CCOCC2)c1 (stereo not drawn) [NCGC00101917]
–	–	–	–	competitively inhibited	–	–	–	JMV2959 [reference compound]
19%	0.00219 µM	0.938 µM	68%	–	–	–	–	CCOc1ccc(C2c3c(oc4ccc(C)cc4c3=O)C(=O)N2CCCN2CCOCC2)cc1 (stereo not drawn) [NCGC00141056]
142%	2.03 µM	1.29 µM	97%	–	–	–	–	CCOc1ccc(C2c3c(oc4ccc(C)cc4c3=O)C(=O)N2CCCN(C)C)cc1 (stereo not drawn) [NCGC00141058]
83%	0.095 µM	~26900 µM	–	–	–	–	–	CCCCOc1ccc(C2c3c(oc4ccc(C)cc4c3=O)C(=O)N2CCCN(C)C)cc1OCC (stereo not drawn) [NCGC00101941]
–	–	~3010 µM	–	–	–	–	–	Cc1cc(C)c2c(=O)c3c(oc2c1)C(=O)N(Cc1ccco1)C3c1ccc(F)cc1 (stereo not drawn) [NCGC00116418]
196%	5.33 µM	0.714 µM	105%	–	–	–	–	COc1ccc(C2c3c(oc4ccc(C)cc4c3=O)C(=O)N2CCCN2CCOCC2)cc1OC (stereo not drawn) [NCGC00141954]
–	–	–	–	competitively inhibited	–	–	–	Cc1nc2ccc(Oc3ccc(F)cc3)cc2c(=O)n1C[C@H]1CCCN(C(C)C)C1 [YIL781, reference compound]
26%	0.0499 µM	12 µM	125%	–	–	–	–	Cc1ccc2oc3c(c(=O)c2c1)C(c1ccc([N+](=O)[O-])cc1)N(CCCN1CCOCC1)C3=O (stereo not drawn) [NCGC00119776]
–	–	~62000 µM	–	–	–	–	–	O=C1c2oc3ccc(F)cc3c(=O)c2C(c2cccc([N+](=O)[O-])c2)N1CCCN1CCOCC1 (stereo not drawn) [NCGC00119778]
99%	1.74 µM	~1520 µM	–	–	–	–	–	CCCOc1cccc(C2c3c(oc4ccc(F)cc4c3=O)C(=O)N2CCCN2CCOCC2)c1 (stereo not drawn) [NCGC00101919]
24%	2.33 µM	13.1 µM	129%	–	–	–	–	COc1ccc(OC)c(C2c3c(oc4ccc(C)cc4c3=O)C(=O)N2CCCN(C)C)c1 (stereo not drawn) [NCGC00136184]
11%	0.0716 µM	~296 µM	–	–	–	–	–	COc1cccc(C2c3c(oc4ccc(C)cc4c3=O)C(=O)N2CCCN2CCOCC2)c1OC (stereo not drawn) [NCGC00136166]
12%	0.528 µM	–	57%	–	–	–	–	O=C1c2oc3ccccc3c(=O)c2C(c2ccccc2F)N1Cc1ccc2c(c1)OCO2 (stereo not drawn) [NCGC00101942]
107%	2.31 µM	0.332 µM	105%	–	–	could not be confirmed	sub-μM potency and full efficacy	CCOc1ccc(C2c3c(oc4ccc(C)cc4c3=O)C(=O)N2CCCN(C)C)cc1OC (stereo not drawn) [NCGC00141956]
7%	2 µM	1.2 µM	63%	–	–	–	–	CCOc1cccc(C2c3c(oc4ccc(F)cc4c3=O)C(=O)N2CCOC)c1 (stereo not drawn) [NCGC00101945]
9%	0.0165 µM	~18500 µM	–	–	–	–	–	CCOc1cc(C2c3c(oc4ccccc4c3=O)C(=O)N2Cc2ccc(OC)cc2)ccc1O (stereo not drawn) [NCGC00101920]
